Test results taken from US11400038B2, “Synergistic antioxidant compositions” (RODAN & FIELDS, LLC, priority 2019, dated 2022).

Experiments:
Adult human fibroblasts = experiment: Phototoxicity (PHTX): cell viability pre- and post-UVA irradiation by MTT assay (Test Method B); assay type: cell-based; details: for cell metabolism versus solvent control, in words: UV-irradiation assay, individual antioxidants; for PHTX Results: phototoxicity: individual antioxidant
Experimental: The cell viability was measured by determining the cells metabolic activity with a MTT assay according to Test Method B, the results are presented in Table 5. An MTT assay is a colorimetric assay for assessing cell metabolic activity.
Adult human fibroblasts were grown to exponential stage in a 96-well plate in DMEM and 10% FBS in humidified atmosphere, 37° C. in 5% CO2. Prior to irradiation, half of cell culture medium was replaced with PBS, treated with 0.1% test material (diluted in double distilled water), and incubated for an additional 1 hour 45 minutes. Following incubation, half of the plate was irradiated with UVA lamp UVA-28T at 5 mW/cm2 for 12 minutes, and the other half remained covered with aluminum foil. Following irradiation, PBS with test materials was replaced by fresh cell culture medium and plate was incubated for an additional 24 hours. Cell viability was then analyzed via MTT assay to quantify metabolic activity.

[1] = test system: UVA-induced Reactive Oxygen Species in Human Dermal Fibroblasts; experiment: DCFH reactive oxygen species quantification in UVA-irradiated fibroblasts (Test Method C); assay type: cell-based; details: individual antioxidant, + pro-oxidant
Experimental: Compositions of Ex1-Ex8 have been tested for reactive oxygen species quantification in UVA-irradiated human dermal fibroblasts. The quantification result is expressed as a percentage of the water control and determined by the Test Method C and resented in Table 6.
Adult human fibroblasts were grown in a 96 well plate in DMEM+5% FBS. At exponential growth stage, medium was replaced with PBS and cells were loaded with 10 μM DCFH-DA (2′-7′-Dichlorofluorescin diacetate). Cells were incubated for 15 minutes at 37° C., rinsed, and incubated with test materials at 1 mg/ml (0.1% w/w) for an additional 20 minutes. Following incubation, plate was irradiated at 5 mW/cm2 for 10 minutes. Measurements of DCF-originated fluorescence were taken before and after irradiation as, in the presence of free radicals, DCFH is oxidized to highly fluorescent DCF, which can be detected in living cells at ex/em 488/530 nm. Total insoluble proteins were quantified to determine effect of test materials on cell number and to standardize ROS signal to cell number using the following equation: [ΔROS signal (t10 min−t0)]\[cell number (background−corrected)]. Water was used as a negative control.

`O=C(/C=C/c1ccc(O)c(O)c1)O[C@H](Cc1ccc(O)c(O)c1)C(=O)O` [Rosmarinic acid, (2R)-3-(3,4-dihydroxyphenyl)-2-{[(2E)-3-(3,4-dihydroxyphenyl)prop-2-enoyl]oxy}propanoic acid] was tested, and the “cell metabolism versus solvent control, in words” value (Adult human fibroblasts) was “lower cell metabolism than solvent control”, the “PHTX Results: phototoxicity” value (Adult human fibroblasts) was “not phototoxic” and the “DCFH Results (intracellular antioxidant): radical activity” value [1] was −52% radical.
With `C[C@@H]1O[C@@H](OC[C@H]2O[C@@H](Oc3c(-c4ccc(O)c(O)c4)oc4cc(O)cc(O)c4c3=O)[C@H](O)[C@@H](O)[C@@H]2O)[C@H](O)[C@H](O)[C@H]1O` [Rutin, 2-(3,4-dihydroxyphenyl)-5,7-dihydroxy-3-[α-L-rhamnopyranosyl-(1→6)-β-D-glucopyranosyloxy]-4H-chromen-4-one] the “cell metabolism versus solvent control, in words” value (Adult human fibroblasts) was “lower cell metabolism than solvent control”, the “PHTX Results: phototoxicity” value (Adult human fibroblasts) was “not phototoxic” and the “DCFH Results (intracellular antioxidant): radical activity” value [1] was “No Activity”.
